Drawing on patent US12145944B2, “Imidazopyrimidines as EED inhibitors and the use thereof” (THE REGENTS OF THE UNIVERSITY OF MICHIGAN, priority 2019, dated 2024), this text covers IC50 for 28 compounds.

One assay relates to Pfeiffer cell line. Description: Anti-proliferative activity, Pfeiffer cell line, 7 day treatment. The class given is cell-based. As to conditions: Homo sapiens, 168 h; anti-proliferative IC50, Pfeiffer cell line, 7 day treatment; read-out: Pfeiffer Cell line. The method, then: (§1) “N/A” stands for “not assessed”.
(§2) To assess the effect of PRC2 inhibition on cell growth, cells were seeded in 96-well cell culture plates at a density of 2 000-3 000 cells/well in 200 µL of culture medium, and treated with serially diluted compounds for 7 days at 37° C. in an atmosphere of 5% CO2. Cell growth was evaluated by a […] WST-8 assay (Dojindo Molecular Technologies) using a Tecan Infinite M1000 multimode microplate reader (Tecan, Morrisville, NC). The WST-8 reagent was added to the plate, incubated for 1-4 h, and read at 450 nm. The readings were normalized to the DMSO-treated cells, and the IC50 was calculated by nonlinear regression analysis using GraphPad Prism 6 software
Regarding `Fc1ccc2c(c1CNc1ncc3c4c(ncn14)COCc1ncccc1-3)CCO2` [Cpd. No. 2, N-((5-fluoro-2,3-dihydrobenzofuran-4-yl)methyl)-3H,5H-4-oxa-2,6,11,12a-tetraazabenzo[4,5]cycloocta[1,2,3-cd]inden-12-amine], the IC50 is above 0.1 µM.

For the compound `O=C1Nc2ccccc2-c2cnc(NCc3c(F)ccc4c3CCO4)n3cnc1c23` [Cpd. No. 3, 11-(((5-fluoro-2,3-dihydrobenzofuran-4-yl)methyl)amino)-2,4,10,11a-tetraazadibenzo[cd,f]azulen-3(4H)-one], the IC50 was 0.084 µM.

In a further assay the test system is KARPAS422 human B cell lymphoma cell. The assay can be described thus: Cell proliferation, KARPAS422, 7 day treatment (WST-8). The class given is cell-based. As to conditions: Homo sapiens, KARPAS-422, 168 h, anti-proliferative IC50, Karpas 422 cell line, 7 day treatment; read-out: Karpas Cell line. The method, then: as §1
Analysis of Cell Proliferation:
as §2
For `Fc1ccc2c(c1CNc1ncc3c4c(ncn14)COCc1ncccc1-3)CCO2` [Cpd. No. 2, N-((5-fluoro-2,3-dihydrobenzofuran-4-yl)methyl)-3H,5H-4-oxa-2,6,11,12a-tetraazabenzo[4,5]cycloocta[1,2,3-cd]inden-12-amine], the IC50 is above 100 nM.

On to `O=C1c2ncn3c(NCc4c(F)ccc5c4CCO5)ncc(c23)-c2ccc(C(F)(F)F)cc2CN1CC1CCOCC1` [compound 66, 12-(((5-fluoro-2,3-dihydrobenzofuran-4-yl)methyl)amino)-4-((tetrahydro-2H-pyran-4-yl)methyl)-7-(trifluoromethyl)-4,5-dihydro-3H-2,4,11,12a-tetraazabenzo[4,5]cycloocta[1,2,3-cd]inden-3-one], for which the IC50 worked out at 0.74 nM.

In the case of `O=C1c2ncn3c(NCc4c(F)ccc5c4CCO5)ncc(c23)-c2ccc(C(F)(F)F)cc2CN1C1CC1` [compound 67, 4-cyclopropyl-12-(((5-fluoro-2,3-dihydrobenzofuran-4-yl)methyl)amino)-7-(trifluoromethyl)-4,5-dihydro-3H-2,4,11,12a-tetraazabenzo[4,5]cycloocta[1,2,3-cd]inden-3-one], the IC50 was determined as 7.78 nM.

As for `O=C1c2ncn3c(NCc4c(F)ccc5c4CCO5)ncc(c23)-c2ccc(C(F)(F)F)cc2CN1CC1COCCO1` (centres unmarked) [compound 68, 4-((1,4-dioxan-2-yl)methyl)-12-(((5-fluoro-2,3-dihydrobenzofuran-4-yl)methyl)amino)-7-(trifluoromethyl)-4,5-dihydro-3H-2,4,11,12a-tetraazabenzo[4,5]cycloocta[1,2,3-cd]inden-3-one], the IC50 is 1.35 nM.

As to `COc1cccc(F)c1CNc1ncc2c3c(ncn13)C(=O)N(C1CC1)Cc1nc(C(F)(F)F)ccc1-2` [compound 69, 4-cyclopropyl-12-((2-fluoro-6-methoxybenzyl)amino)-7-(trifluoromethyl)-4,5-dihydro-3H-2,4,6,11,12a-pentaazabenzo[4,5]cycloocta[1,2,3-cd]inden-3-one], the IC50 is above 100 nM.

Regarding `COc1cccc(F)c1CNc1ncc2c3c(ncn13)C(=O)N(C1CC1)Cc1cc(C(F)(F)F)ncc1-2` [compound 70, 4-cyclopropyl-12-((2-fluoro-6-methoxybenzyl)amino)-7-(trifluoromethyl)-4,5-dihydro-3H-2,4,8,11,12a-pentaazabenzo[4,5]cycloocta[1,2,3-cd]inden-3-one], the IC50 was above 100 nM.

With `COc1cccc(F)c1CNc1ncc2c3c(ncn13)C(=O)N(C(C)C)Cc1nc(C(F)(F)F)ccc1-2` [compound 71, 12-((2-fluoro-6-methoxybenzyl)amino)-4-isopropyl-7-(trifluoromethyl)-4,5-dihydro-3H-2,4,6,11,12a-pentaazabenzo[4,5]cycloocta[1,2,3-cd]inden-3-one], the IC50 was above 100 nM.

In the case of `O=C1c2ncn3c(NCc4c(F)ccc5c4CCO5)ncc(c23)-c2cnc(C(F)(F)F)cc2CN1CCF` [compound 72, 12-(((5-fluoro-2,3-dihydrobenzofuran-4-yl)methyl)amino)-4-(2-fluoroethyl)-7-(trifluoromethyl)-4,5-dihydro-3H-2,4,8,11,12a-pentaazabenzo[4,5]cycloocta[1,2,3-cd]inden-3-one], the IC50 is 3.86 nM.

On to `CC(C)N1Cc2cc(C(F)(F)F)ncc2-c2cnc(NCc3c(F)ccc4c3CCO4)n3cnc(c23)C1=O` [compound 73, 12-(((5-fluoro-2,3-dihydrobenzofuran-4-yl)methyl)amino)-4-isopropyl-7-(trifluoromethyl)-4,5-dihydro-3H-2,4,8,11,12a-pentaazabenzo[4,5]cycloocta[1,2,3-cd]inden-3-one], for which the IC50 amounted to 11.3 nM.

Regarding `CN1CCC(N2Cc3cc(C(F)(F)F)ccc3-c3cnc(NCc4c(F)ccc5c4CCO5)n4cnc(c34)C2=O)CC1` [compound 74, 12-(((5-fluoro-2,3-dihydrobenzofuran-4-yl)methyl)amino)-4-(1-methylpiperidin-4-yl)-7-(trifluoromethyl)-4,5-dihydro-3H-2,4,11,12a-tetraazabenzo[4,5]cycloocta[1,2,3-cd]inden-3-one], the IC50 stood at 47 nM.

Consider `CC(F)(F)CN1Cc2nc(C(F)(F)F)ccc2-c2cnc(NCc3c(F)ccc4c3CCO4)n3cnc(c23)C1=O` [compound 77, 4-(2,2-difluoropropyl)-12-(((5-fluoro-2,3-dihydrobenzofuran-4-yl)methyl)amino)-7-(trifluoromethyl)-4,5-dihydro-3H-2,4,6,11,12a-pentaazabenzo[4,5]cycloocta[1,2,3-cd]inden-3-one], for which the IC50 is 22.5 nM.

`O=C1c2ncn3c(NCc4c(F)ccc5c4CCO5)ncc(c23)-c2ccc(C(F)(F)F)cc2CN1CC(F)F` [compound 81, 4-(2,2-difluoroethyl)-12-(((5-fluoro-2,3-dihydrobenzofuran-4-yl)methyl)amino)-7-(trifluoromethyl)-4,5-dihydro-3H-2,4,11,12a-tetraazabenzo[4,5]cycloocta[1,2,3-cd]inden-3-one]: the IC50 is 1.43 nM.

For the compound `CCOC(=O)c1ncn2c(NCc3ccccc3OC)ncc(-c3ccccc3)c12` [compound 129, ethyl 5-((2-methoxybenzyl)amino)-8-phenylimidazo[1,5-c]pyrimidine-1-carboxylate], the IC50 is above 100 nM.

Consider `CCOC(=O)c1ncn2c(NCc3c(F)cccc3OC)ncc(-c3ccccc3)c12` [compound 130, ethyl 5-((2-fluoro-6-methoxybenzyl)amino)-8-phenylimidazo[1,5-c]pyrimidine-1-carboxylate], for which the IC50 is above 100 nM.

Turning to `CCOC(=O)c1ncn2c(NCc3cc(OC)ccc3F)ncc(-c3ccccc3)c12` [compound 132, ethyl 5-((2-fluoro-5-methoxybenzyl)amino)-8-phenylimidazo[1,5-c]pyrimidine-1-carboxylate], the IC50 was above 100 nM.

In the case of `CCOC(=O)c1ncn2c(NCc3c(F)ccc(OC)c3Cl)ncc(-c3ccccc3)c12` [compound 133, ethyl 5-((2-chloro-6-fluoro-3-methoxybenzyl)amino)-8-phenylimidazo[1,5-c]pyrimidine-1-carboxylate], the IC50 is above 100 nM.

Consider `CCOC(=O)c1ncn2c(NCc3cccc4c3OCO4)ncc(-c3ccccc3)c12` [compound 134, ethyl 5-((benzo[d][1,3]dioxol-4-ylmethyl)amino)-8-phenylimidazo[1,5-c]pyrimidine-1-carboxylate], for which the IC50 was above 100 nM.

Consider `CCOC(=O)c1ncn2c(NCc3c(F)ccc4c3CCO4)ncc(-c3ccccc3)c12` [compound 135, ethyl 5-(((5-fluoro-2,3-dihydrobenzofuran-4-yl)methyl)amino)-8-phenylimidazo[1,5-c]pyrimidine-1-carboxylate], for which the IC50 came to 7.07 nM.

With `CNC(=O)c1ncn2c(NCc3ccccc3OC)ncc(-c3ccccc3)c12` [compound 136, 5-((2-methoxybenzyl)amino)-N-methyl-8-phenylimidazo[1,5-c]pyrimidine-1-carboxamide], the IC50 was above 100 nM.

Turning to `CNC(=O)c1ncn2c(NCc3c(F)cccc3OC)ncc(-c3ccccc3)c12` [compound 137, 5-((2-fluoro-6-methoxybenzyl)amino)-N-methyl-8-phenylimidazo[1,5-c]pyrimidine-1-carboxamide], the IC50 was above 100 nM.

As for `CNC(=O)c1ncn2c(NCc3c(F)ccc(F)c3OC)ncc(-c3ccccc3)c12` [compound 138, 5-((3,6-difluoro-2-methoxybenzyl)amino)-N-methyl-8-phenylimidazo[1,5-c]pyrimidine-1-carboxamide], the IC50 is above 100 nM.

On to `CNC(=O)c1ncn2c(NCc3cc(OC)ccc3F)ncc(-c3ccccc3)c12` [compound 139, 5-((2-fluoro-5-methoxybenzyl)amino)-N-methyl-8-phenylimidazo[1,5-c]pyrimidine-1-carboxamide], for which the IC50 is above 100 nM.

As to `CNC(=O)c1ncn2c(NCc3c(F)ccc(OC)c3Cl)ncc(-c3ccccc3)c12` [compound 140, 5-((2-chloro-6-fluoro-3-methoxybenzyl)amino)-N-methyl-8-phenylimidazo[1,5-c]pyrimidine-1-carboxamide], the IC50 is above 100 nM.

For `CNC(=O)c1ncn2c(NCc3cccc4c3OCO4)ncc(-c3ccccc3)c12` [compound 141, 5-((benzo[d][1,3]dioxol-4-ylmethyl)amino)-N-methyl-8-phenylimidazo[1,5-c]pyrimidine-1-carboxamide], the IC50 was above 100 nM.

Take `CNC(=O)c1ncn2c(NCc3c(F)ccc4c3CCO4)ncc(-c3ccccc3)c12` [compound 142, 5-(((5-fluoro-2,3-dihydrobenzofuran-4-yl)methyl)amino)-N-methyl-8-phenylimidazo[1,5-c]pyrimidine-1-carboxamide]: the IC50 was above 100 nM.

Still in this assay, the particulars now being: Homo sapiens, KARPAS-422, 168 h, read-out: Karpas Cell line (nM).
With `Cc1ccc(-c2cnc(NCc3c(F)ccc4c3CCO4)n3cnc(S(C)(=O)=O)c23)cn1` [compound 103, N-((5-fluoro-2,3-dihydrobenzofuran-4-yl)methyl)-8-(6-methylpyridin-3-yl)-1-(methylsulfonyl)imidazo[1,5-c]pyrimidin-5-amine], the IC50 is 1.88 nM.

For `CS(=O)(=O)c1ccc(-c2cnc(NCc3c(F)ccc4c3CCO4)n3cnc(S(C)(=O)=O)c23)cn1` [compound 105, N-((5-fluoro-2,3-dihydrobenzofuran-4-yl)methyl)-1-(methylsulfonyl)-8-(6-(methylsulfonyl)pyridin-3-yl)imidazo[1,5-c]pyrimidin-5-amine], the IC50 was 10.8 nM.
